Experimental data from ChEMBL document CHEMBL1909593, “Identification of novel plasmin inhibitors possessing nitrile moiety as warhead” (Bioorg Med Chem Lett, 2011).

Legend:
[1] = biological target: T1, Plasminogen (Homo sapiens, UniProt P00747); assay: Inhibition of plasmin
[2] = biological target: T2, Plasma kallikrein (Homo sapiens, UniProt P03952); assay: Inhibition of plasma kallikrein at 1000 uM
[3] = biological target: Urokinase-type plasminogen activator (Homo sapiens) (UniProt P00749); assay: Inhibition of urokinase at 1000 uM
[4] = biological target: Urokinase-type plasminogen activator (Homo sapiens) (UniProt P00749); assay: Inhibition of urokinase at 200 uM
[5] = biological target: T2, Plasma kallikrein; assay: Inhibition of plasma kallikrein at 250 uM
[6] = biological target: T1, Plasminogen; assay: Inhibition of plasmin at 250 uM
[7] = biological target: T2, Plasma kallikrein; assay: Inhibition of plasma kallikrein
[8] = biological target: Urokinase-type plasminogen activator (Homo sapiens) (UniProt P00749); assay: Inhibition of urokinase at 500 uM
[9] = biological target: Urokinase-type plasminogen activator (Homo sapiens) (UniProt P00749); assay: Inhibition of urokinase at 400 uM

T1 sequence (P00747 97-580 limits assumed): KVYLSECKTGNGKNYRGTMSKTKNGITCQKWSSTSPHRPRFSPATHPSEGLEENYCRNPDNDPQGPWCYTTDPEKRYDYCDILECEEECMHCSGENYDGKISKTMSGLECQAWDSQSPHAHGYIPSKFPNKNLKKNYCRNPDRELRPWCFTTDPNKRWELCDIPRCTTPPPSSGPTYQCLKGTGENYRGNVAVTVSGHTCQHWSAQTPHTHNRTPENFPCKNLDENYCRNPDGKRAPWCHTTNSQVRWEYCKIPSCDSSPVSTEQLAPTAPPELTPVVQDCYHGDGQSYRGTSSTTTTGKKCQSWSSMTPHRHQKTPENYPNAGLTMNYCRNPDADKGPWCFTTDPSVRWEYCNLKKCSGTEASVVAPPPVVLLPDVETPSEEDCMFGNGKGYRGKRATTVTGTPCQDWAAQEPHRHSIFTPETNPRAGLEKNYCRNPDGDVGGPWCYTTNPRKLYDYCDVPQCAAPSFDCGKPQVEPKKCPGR
T1 sequence (P00747 581-810 limits assumed): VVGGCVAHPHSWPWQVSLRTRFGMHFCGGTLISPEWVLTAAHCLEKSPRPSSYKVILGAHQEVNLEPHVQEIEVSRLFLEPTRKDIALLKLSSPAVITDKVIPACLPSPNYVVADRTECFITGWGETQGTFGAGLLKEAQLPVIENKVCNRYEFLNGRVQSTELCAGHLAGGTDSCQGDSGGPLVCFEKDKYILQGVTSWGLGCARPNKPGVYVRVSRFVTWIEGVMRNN
T2 sequence (P03952 20-390 limits assumed): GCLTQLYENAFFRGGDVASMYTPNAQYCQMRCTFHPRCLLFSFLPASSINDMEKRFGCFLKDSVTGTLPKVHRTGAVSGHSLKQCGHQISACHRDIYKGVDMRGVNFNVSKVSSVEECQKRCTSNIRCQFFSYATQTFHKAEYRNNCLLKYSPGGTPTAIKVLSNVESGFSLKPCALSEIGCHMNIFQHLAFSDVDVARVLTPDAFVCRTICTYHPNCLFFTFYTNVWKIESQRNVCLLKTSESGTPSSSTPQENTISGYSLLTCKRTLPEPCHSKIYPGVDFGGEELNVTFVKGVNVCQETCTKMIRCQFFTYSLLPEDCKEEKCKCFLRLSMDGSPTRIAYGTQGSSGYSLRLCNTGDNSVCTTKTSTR
T2 sequence (P03952 391-638 limits assumed): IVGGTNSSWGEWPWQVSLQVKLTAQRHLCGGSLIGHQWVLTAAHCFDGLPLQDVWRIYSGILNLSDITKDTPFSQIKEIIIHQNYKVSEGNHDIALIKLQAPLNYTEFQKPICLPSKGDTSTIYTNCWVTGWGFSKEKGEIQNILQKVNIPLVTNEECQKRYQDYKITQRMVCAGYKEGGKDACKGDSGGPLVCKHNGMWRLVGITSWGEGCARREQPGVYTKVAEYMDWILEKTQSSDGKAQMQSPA

Question: What does the source list for `CC[C@@H](C)[C@@H](N)C(=O)N[C@@H](Cc1ccccc1)C(=O)N[C@@H](CCCCN)C(N)=O`?
Answer: IC50 [1]: 290 µM; inhibition [2]: 0%; inhibition [3]: 0%

Question: Which inhibition [4] does the source give for `N#C[C@H](CCCCN)NC(=O)c1ccc(OCc2ccncc2)c(NC(=O)CCc2c[nH]c3ccccc23)c1` here?
Answer: 0%

Question: What about the IC50 [1] of the same compound?
Answer: 370 µM

Question: And the inhibition [2]?
Answer: 44%

Question: How did the inhibition [5] turn out when `COc1ccc(C(=O)N[C@H](C#N)CCCCN)cc1NC(=O)CCc1cn(Cc2ccc(F)cc2)c2ccccc12` was run?
Answer: 22%

Question: What about the inhibition [4] of the same compound?
Answer: 0%

Question: And the inhibition [6]?
Answer: 0%

Question: Which IC50 [7] does the source give for `N#C[C@H](CCCCN)NC(=O)c1ccc(OCc2ccncc2)c(NC(=O)Cc2cccc3ccccc23)c1` here?
Answer: 680 µM

Question: And the inhibition [8]?
Answer: 16%

Question: And the IC50 [1]?
Answer: 570 µM

Question: Which IC50 [1] does the source give for `N#C[C@H](CCCCN)NC(=O)c1ccc(OCc2ccncc2)cc1` here?
Answer: 240 µM

Question: What about the inhibition [2] of the same compound?
Answer: 45%

Question: And the inhibition [3]?
Answer: 16%

Question: For `N#C[C@H](CCCCN)NC(=O)c1ccc(OCc2ccncc2)c(NC(=O)Cc2ccc3ccccc3c2)c1`, which IC50 [7] is on record?
Answer: 380 µM

Question: And the inhibition [8]?
Answer: 20%

Question: What about the IC50 [1] of the same compound?
Answer: 220 µM

Question: `N#C[C@H](CCCCN)NC(=O)c1ccc(OCc2ccncc2)c(NC(=O)Cc2ccc(F)cc2)c1` was tested. Which IC50 [1] did it give?
Answer: 590 µM

Question: What about the inhibition [2] of the same compound?
Answer: 11%

Question: What about the inhibition [3] of the same compound?
Answer: 19%

Question: What does the source list for `N#C[C@H](CCCCN)NC(=O)c1ccc(OCc2ccncc2)c(NC(=O)CCc2cn(Cc3ccc(F)cc3)c3ccccc23)c1`?
Answer: inhibition [9]: 0%; IC50 [1]: 140 µM; inhibition [2]: 0%

Question: For `CC[C@@H](C)[C@@H](N)C(=O)N[C@@H](Cc1ccccc1)C(=O)N[C@H](C#N)CCCCN`, which IC50 [1] is on record?
Answer: 78 µM

Question: What about the inhibition [2] of the same compound?
Answer: 38%

Question: What about the inhibition [3] of the same compound?
Answer: 15%

Question: What does the source list for `CC(C)(C)OC(=O)n1cc(CCC(=O)Nc2cc(C(=O)N[C@H](C#N)CCCCN)ccc2OCc2ccncc2)c2ccccc21`?
Answer: IC50 [7]: 910 µM; inhibition [4]: 0%; IC50 [1]: 220 µM
